Measured values published in ChEMBL document CHEMBL1148050, “Sigmoidins J and K, two new prenylated isoflavonoids from Erythrina sigmoidea” (1994).
Converted amounts (≈) assume the structure as drawn.

What was measured:
Format in all cases: functional
[1] = system: Staphylococcus aureus; assay: Antibacterial activity against Staphylococcus aureus
[2] = system: Cryptococcus neoformans; assay: Antifungal activity against Cryptococcus neoformans
[3] = system: Aspergillus fumigatus; assay: Antifungal activity against Aspergillus fumigatus

MIC [1]: 3.2 µg/mL (≈ 9.93 µM)
MIC [2]: 50 µg/mL (≈ 155 µM)
MIC [3]: 50 µg/mL (≈ 155 µM)
SMILES: CC(C)=CCc1cc(-c2coc3cc(O)ccc3c2=O)ccc1O [NEOBAVAISOFLAVONE]
